Source: PubChem BioAssay (NCI)
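Each compound was tested at five concentrations against cells in 96-well plates for 48 hours. GI50 marks 50% less growth. TGI: concentration producing complete growth inhibition.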

Tests used:
Test in all cases: NCI anticancer screen, dose series, 48 h
[1] = tested on: SNB-75 CNS
[2] = tested on: HOP-62 NSCLC
[3] = tested on: SK-MEL-28 melanoma
[4] = tested on: SK-OV-3 ovarian
[5] = tested on: T-47D breast
[6] = tested on: RXF 393 renal
[7] = tested on: HT29 colon
[8] = tested on: EKVX NSCLC
[9] = tested on: A549 NSCLC
[10] = tested on: K-562 leukemia

Compound	TGI [1] [µM]	TGI [2] [µM]	TGI [3] [µM]	TGI [4] [µM]	TGI [5] [µM]	TGI [6] [µM]	TGI [7] [µM]	TGI [8] [µM]	TGI [9] [µM]	GI50 [1] [µM]	GI50 [2] [µM]	GI50 [3] [µM]	GI50 [5] [µM]	GI50 [6] [µM]	GI50 [7] [µM]	GI50 [10] [µM]	TGI [10] [µM]	GI50 [8] [µM]	GI50 [9] [µM]
COc1ccc(N2C(=O)C3c4[nH]c5ccc(F)cc5c4C4CCC(C(C)(C)C)CC4C3C2=O)cc1 (stereo unspecified)	4.87	> 10	> 10	> 10	> 10	> 10	> 10	> 10	> 10	–	–	–	–	–	–	–	–	–	–
O=C(NCCNc1nccc(-c2c(-c3cccc(O)c3)nc3sccn23)n1)c1ccccc1	28.1	94.2	99.1	–	49	22.2	38.3	> 100	46.5	3.27	23.5	0.336	11	4.14	6.8	9.11	> 100	25	9.21
Cc1nc2[nH]ncn2c(=O)c1CCO	> 10	> 10	7.74	> 10	> 10	> 10	> 10	> 10	> 10	–	–	–	–	–	–	–	> 10	–	–
COc1ccc2c3c([nH]c2c1)CCN(Cc1ccccc1)C3	> 100	80.2	38	> 100	69.1	50.7	> 100	> 100	> 100	–	–	–	–	–	–	–	51.3	–	–
CCOC(=O)Cc1cnc(NC(NC(=O)CC)(C(F)(F)F)C(F)(F)F)s1	> 100	> 100	> 100	> 100	> 100	> 100	> 100	> 100	–	–	–	–	–	–	–	–	> 100	–	–
